Measured values published in ChEMBL document CHEMBL1134138, “Phytoestrogens from the roots of Polygonum cuspidatum (Polygonaceae): structure-requirement of hydroxyanthraquinones for estrogenic activity” (Bioorg Med Chem Lett, 2001).
pIC50, pKi: −log10 of the molar value.

Columns and labels:
[1] = molecular target: T1, Estrogen receptor beta (Homo sapiens, UniProt Q92731)
Description: (§1) Inhibition of binding of 17 beta-estradiol to human Estrogen receptor beta

[2] = molecular target: T1, Estrogen receptor beta; remark: listed apart in the source
Description: as §1

[3] = molecular target: T2, Estrogen receptor (Homo sapiens, UniProt P03372)
T2 sequence (P03372 whole entry): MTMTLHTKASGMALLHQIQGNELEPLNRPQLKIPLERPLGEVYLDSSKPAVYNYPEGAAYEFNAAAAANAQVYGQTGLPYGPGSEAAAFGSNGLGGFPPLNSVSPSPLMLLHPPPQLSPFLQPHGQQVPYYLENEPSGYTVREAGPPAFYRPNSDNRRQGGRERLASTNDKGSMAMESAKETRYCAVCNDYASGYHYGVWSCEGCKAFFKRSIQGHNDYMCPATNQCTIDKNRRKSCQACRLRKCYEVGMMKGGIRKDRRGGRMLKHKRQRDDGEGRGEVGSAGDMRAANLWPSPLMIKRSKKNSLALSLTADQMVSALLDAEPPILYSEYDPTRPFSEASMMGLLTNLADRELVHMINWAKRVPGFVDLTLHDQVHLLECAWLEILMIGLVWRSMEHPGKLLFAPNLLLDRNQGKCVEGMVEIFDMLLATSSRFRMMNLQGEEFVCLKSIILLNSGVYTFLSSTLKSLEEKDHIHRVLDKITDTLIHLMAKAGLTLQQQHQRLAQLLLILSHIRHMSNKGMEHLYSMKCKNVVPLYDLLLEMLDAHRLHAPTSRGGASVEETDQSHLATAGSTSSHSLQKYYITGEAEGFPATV
Description: (§2) Inhibition of binding of 17 beta-estradiol to human Estrogen receptor alpha

[4] = molecular target: T2, Estrogen receptor; remark: listed apart in the source
Description: as §2

T1 sequence (Q92731 whole entry): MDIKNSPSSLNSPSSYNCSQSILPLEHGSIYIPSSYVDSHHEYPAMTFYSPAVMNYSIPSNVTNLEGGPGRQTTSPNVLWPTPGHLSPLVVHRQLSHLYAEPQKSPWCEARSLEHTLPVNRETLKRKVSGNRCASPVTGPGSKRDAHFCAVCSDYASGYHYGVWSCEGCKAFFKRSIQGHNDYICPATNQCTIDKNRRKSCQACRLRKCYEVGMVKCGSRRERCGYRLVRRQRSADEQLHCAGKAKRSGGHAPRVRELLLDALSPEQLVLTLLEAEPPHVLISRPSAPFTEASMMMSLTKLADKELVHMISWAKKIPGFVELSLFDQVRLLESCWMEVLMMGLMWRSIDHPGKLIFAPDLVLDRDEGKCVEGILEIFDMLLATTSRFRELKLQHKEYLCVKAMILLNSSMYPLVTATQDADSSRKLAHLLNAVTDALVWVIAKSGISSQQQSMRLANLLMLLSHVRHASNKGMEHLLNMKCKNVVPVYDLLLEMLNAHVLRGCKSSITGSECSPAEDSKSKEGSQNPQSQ

pIC50 [1] | pKi [2] | pIC50 [3] | pKi [4] | Compound
5.62 | 6.16 | 5.96 | 6.51 | O=C1c2ccc(O)cc2C(=O)c2ccc(O)cc21
4.21 | 4.74 | 4.70 | 5.24 | Cc1cc(O)c2c(c1)C(=O)c1cc(O)cc(O[C@@H]3O[C@H](CO)[C@@H](O)[C@H](O)[C@H]3O)c1C2=O [EMODIN 8-O-BETA-D-GLUCOPYRANOSIDE]

Compound | pIC50 [1] | pKi [2] | pIC50 [3] | pKi [4]
Cc1cc(O)c2c(c1)C(=O)c1cc(O)cc(O)c1C2=O [EMODIN] | 5.28 | 5.82 | – | –
